{
  "source": "patent US20250152592A1",
  "about": "“PHARMACEUTICAL COMPOSITION COMPRISING ALLOPURINOL, FEBUXOSTAT OR PHARMACEUTICALLY ACCEPTABLE SALT THEREOF FOR PREVENTION OR TREATMENT OF CHRONIC KIDNEY DISEASE IN SUBJECT HAVING HIGH SERUM URIC ACID CONCENTRATION” (Indream Healthcare Inc., priority 2022, published 2025)",
  "test_system": "patients with gout and a history of major cardiovascular diseases",
  "experiment": "eGFR over time by average serum uric acid concentration, analysis of clinical trial data",
  "type": "in vivo, human",
  "settings": "allopurinol group",
  "experimental": "In order to evaluate non-inferiority of febuxostat to allopurinol related to cardiovascular risk, a clinical trial was designed and proceeded.\nA multicenter, randomized, double-blind non-inferiority trial was performed. The details of the clinical trial design have been published previously. An independent data and safety monitoring committee with access to unblinded data monitored the clinical trial. The statistical analysis for the data and the safety monitoring committee was performed by an independent statistical group (WebbWrites).\nThe patients were regarded as having a history of major cardiovascular diseases, if they had myocardial infarction, hospitalization for unstable angina, stroke, hospitalization for transient ischemic attack, peripheral vascular disease, or diabetes mellitus symptoms. All participants provided a prior informed consent form.\nThe patients were randomly assigned so that they received febuxostat or allopurinol administered once a day in a double-blind manner. The randomization was stratified according to the estimated creatinine clearance at baseline (patient group having an estimated creatinine clearance ≥60 ml per minute vs patient group having an estimated creatinine clearance ≥30 and <60 ml per minute).\nThe dose of allopurinol was modified according to a kidney function. The patients with the estimated creatinine clearance 60 ml or more per minute i) initially received allopurinol at a dose of 300 mg once a day, and the dose was increased in 100 mg increments monthly until the patient had the serum uric acid concentration of less than 6.0 mg per deciliter or the dosage of allopurinol was 600 mg once a day. The patient having the estimated creatinine clearance of 30 ml or more and less than 60 ml per minute initially received 200 mg of allopurinol, and then the dose was increased in 100 mg increments until the patient either had the serum uric acid concentration of less than 6.0 mg per deciliter or was receiving the allopurinol dose of 400 mg once daily.\nThe dose of febuxostat was not modified according to the kidney function. The patients who were randomly assigned to receive febuxostat initially received 40 mg once a daily, and continued to receive the same dosage if the serum uric acid concentration was less than 6.0 mg per deciliter after 2 weeks of the treatment. If the serum uric acid concentration was higher than 6.0 mg per deciliter at 2nd week visit, the dose of febuxostat was increased to 80 mg once daily for the remainder of the trial.\nDuring the period, the administration of a double-blind and double-dummy trial medications was guided by an interactive voice-response system which was a procedure to prevent unblinding for the patients whose dose was not adjusted. After completing dose adjustment, the urate level was concealed from the investigators, and the treatment was managed throughout the trial using the interactive voice-response system.\nOutpatient visits were conducted according to the following schedule: during screening and randomization, and at 2, 4, 6, 8, 10, 12, and 24 weeks after the randomization, and every 6 months during the subsequent years of the trial. The patients with reduced kidney function or, the patients aged 65 years or older at randomization were visited at 9 and 15 months for monitoring the serum chemical profile. If the patient agreed to be monitored, but would not return for study visit, telephone contact was made, but such method was not preferred or recommended.\nIn order to confirm the effect of allopurinol and febuxostat on the kidney disease, the data obtained in the clinical trial described above was analyzed.",
  "data": [
    {"smiles": "Oc1ncnc2[nH]ncc12", "note": "[allopurinol]", "values": [
      {"measurement": "eGFR Mean (95% CI)", "setting": "Baseline blood glucose level ≥126, Average UA <6, Baseline", "value": "63.77 (62.08-65.46) ml/min/1.73 m^2"},
      {"measurement": "eGFR Mean (95% CI)", "setting": "Baseline blood glucose level ≥126, Average UA <6, Month 3", "value": "63.92 (62.16-65.69) ml/min/1.73 m^2"},
      {"measurement": "eGFR Mean (95% CI)", "setting": "Baseline blood glucose level ≥126, Average UA <6, Month 6", "value": "63.77 (61.98-65.56) ml/min/1.73 m^2"},
      {"measurement": "eGFR Mean (95% CI)", "setting": "Baseline blood glucose level ≥126, Average UA <6, Month 12", "value": "64.33 (62.51-66.15) ml/min/1.73 m^2"},
      {"measurement": "eGFR Mean (95% CI)", "setting": "Baseline blood glucose level ≥126, Average UA <6, Month 18", "value": "64.04 (61.97-66.10) ml/min/1.73 m^2"},
      {"measurement": "eGFR Mean (95% CI)", "setting": "Baseline blood glucose level ≥126, Average UA <6, Month 24", "value": "64.60 (62.41-66.78) ml/min/1.73 m^2"},
      {"measurement": "eGFR Mean (95% CI)", "setting": "Baseline blood glucose level ≥126, Average UA <6, Month 30", "value": "63.32 (60.93-65.71) ml/min/1.73 m^2"},
      {"measurement": "eGFR Mean (95% CI)", "setting": "Baseline blood glucose level ≥126, Average UA <6, Month 36", "value": "63.57 (60.97-66.18) ml/min/1.73 m^2"},
      {"measurement": "eGFR Mean (95% CI)", "setting": "Baseline blood glucose level ≥126, Average UA <6, Month 42", "value": "62.14 (59.40-64.89) ml/min/1.73 m^2"},
      {"measurement": "eGFR Mean (95% CI)", "setting": "Baseline blood glucose level ≥126, Average UA <6, Month 48", "value": "64.42 (61.23-67.61) ml/min/1.73 m^2"},
      {"measurement": "eGFR Mean (95% CI)", "setting": "Baseline blood glucose level ≥126, Average UA <6, Month 54", "value": "64.35 (61.09-67.61) ml/min/1.73 m^2"},
      {"measurement": "eGFR Mean (95% CI)", "setting": "Baseline blood glucose level ≥126, Average UA <6, Month 60", "value": "64.49 (60.29-68.70) ml/min/1.73 m^2"},
      {"measurement": "eGFR Mean (95% CI)", "setting": "Baseline blood glucose level ≥126, Average UA <6, Week 2", "value": "63.46 (61.70-65.22) ml/min/1.73 m^2"},
      {"measurement": "eGFR Mean (95% CI)", "setting": "Baseline blood glucose level ≥126, Average UA ≥6, Baseline", "value": "62.56 (60.14-64.98) ml/min/1.73 m^2"},
      {"measurement": "eGFR Mean (95% CI)", "setting": "Baseline blood glucose level ≥126, Average UA ≥6, Month 3", "value": "62.44 (59.88-65.00) ml/min/1.73 m^2"},
      {"measurement": "eGFR Mean (95% CI)", "setting": "Baseline blood glucose level ≥126, Average UA ≥6, Month 6", "value": "61.37 (58.85-63.90) ml/min/1.73 m^2"},
      {"measurement": "eGFR Mean (95% CI)", "setting": "Baseline blood glucose level ≥126, Average UA ≥6, Month 12", "value": "62.57 (60.02-65.12) ml/min/1.73 m^2"},
      {"measurement": "eGFR Mean (95% CI)", "setting": "Baseline blood glucose level ≥126, Average UA ≥6, Month 18", "value": "60.70 (57.80-63.60) ml/min/1.73 m^2"},
      {"measurement": "eGFR Mean (95% CI)", "setting": "Baseline blood glucose level ≥126, Average UA ≥6, Month 24", "value": "60.72 (57.46-63.99) ml/min/1.73 m^2"},
      {"measurement": "eGFR Mean (95% CI)", "setting": "Baseline blood glucose level ≥126, Average UA ≥6, Month 30", "value": "60.06 (56.44-63.69) ml/min/1.73 m^2"},
      {"measurement": "eGFR Mean (95% CI)", "setting": "Baseline blood glucose level ≥126, Average UA ≥6, Month 36", "value": "59.78 (55.61-63.95) ml/min/1.73 m^2"},
      {"measurement": "eGFR Mean (95% CI)", "setting": "Baseline blood glucose level ≥126, Average UA ≥6, Month 42", "value": "57.66 (52.84-62.48) ml/min/1.73 m^2"},
      {"measurement": "eGFR Mean (95% CI)", "setting": "Baseline blood glucose level ≥126, Average UA ≥6, Month 48", "value": "56.80 (51.66-61.93) ml/min/1.73 m^2"},
      {"measurement": "eGFR Mean (95% CI)", "setting": "Baseline blood glucose level ≥126, Average UA ≥6, Month 54", "value": "57.15 (51.53-62.78) ml/min/1.73 m^2"},
      {"measurement": "eGFR Mean (95% CI)", "setting": "Baseline blood glucose level ≥126, Average UA ≥6, Month 60", "value": "54.70 (48.12-61.28) ml/min/1.73 m^2"},
      {"measurement": "eGFR Mean (95% CI)", "setting": "Baseline blood glucose level ≥126, Average UA ≥6, Week 2", "value": "62.27 (59.80-64.73) ml/min/1.73 m^2"},
      {"measurement": "eGFR Mean (95% CI)", "setting": "DBP <80, Average UA <6, Baseline", "value": "62.91 (61.68-64.15) ml/min/1.73 m^2"},
      {"measurement": "eGFR Mean (95% CI)", "setting": "DBP <80, Average UA <6, Month 3", "value": "63.26 (61.95-64.58) ml/min/1.73 m^2"},
      {"measurement": "eGFR Mean (95% CI)", "setting": "DBP <80, Average UA <6, Month 6", "value": "63.55 (62.23-64.87) ml/min/1.73 m^2"},
      {"measurement": "eGFR Mean (95% CI)", "setting": "DBP <80, Average UA <6, Month 12", "value": "64.71 (63.34-66.07) ml/min/1.73 m^2"},
      {"measurement": "eGFR Mean (95% CI)", "setting": "DBP <80, Average UA <6, Month 18", "value": "64.41 (62.91-65.90) ml/min/1.73 m^2"},
      {"measurement": "eGFR Mean (95% CI)", "setting": "DBP <80, Average UA <6, Month 24", "value": "64.00 (62.43-65.57) ml/min/1.73 m^2"},
      {"measurement": "eGFR Mean (95% CI)", "setting": "DBP <80, Average UA <6, Month 30", "value": "64.49 (62.77-66.21) ml/min/1.73 m^2"},
      {"measurement": "eGFR Mean (95% CI)", "setting": "DBP <80, Average UA <6, Month 36", "value": "63.61 (61.80-65.43) ml/min/1.73 m^2"},
      {"measurement": "eGFR Mean (95% CI)", "setting": "DBP <80, Average UA <6, Month 42", "value": "63.91 (61.95-65.87) ml/min/1.73 m^2"},
      {"measurement": "eGFR Mean (95% CI)", "setting": "DBP <80, Average UA <6, Month 48", "value": "64.88 (62.69-67.07) ml/min/1.73 m^2"},
      {"measurement": "eGFR Mean (95% CI)", "setting": "DBP <80, Average UA <6, Month 54", "value": "64.19 (61.76-66.62) ml/min/1.73 m^2"},
      {"measurement": "eGFR Mean (95% CI)", "setting": "DBP <80, Average UA <6, Month 60", "value": "64.73 (61.86-67.61) ml/min/1.73 m^2"},
      {"measurement": "eGFR Mean (95% CI)", "setting": "DBP <80, Average UA <6, Week 2", "value": "62.85 (61.57-64.14) ml/min/1.73 m^2"},
      {"measurement": "eGFR Mean (95% CI)", "setting": "DBP <80, Average UA ≥6, Baseline", "value": "60.15 (58.18-62.12) ml/min/1.73 m^2"},
      {"measurement": "eGFR Mean (95% CI)", "setting": "DBP <80, Average UA ≥6, Month 3", "value": "61.22 (59.20-63.24) ml/min/1.73 m^2"},
      {"measurement": "eGFR Mean (95% CI)", "setting": "DBP <80, Average UA ≥6, Month 6", "value": "61.19 (59.14-63.24) ml/min/1.73 m^2"},
      {"measurement": "eGFR Mean (95% CI)", "setting": "DBP <80, Average UA ≥6, Month 12", "value": "60.39 (58.37-62.42) ml/min/1.73 m^2"},
      {"measurement": "eGFR Mean (95% CI)", "setting": "DBP <80, Average UA ≥6, Month 18", "value": "60.06 (57.73-62.40) ml/min/1.73 m^2"},
      {"measurement": "eGFR Mean (95% CI)", "setting": "DBP <80, Average UA ≥6, Month 24", "value": "59.51 (56.88-62.15) ml/min/1.73 m^2"},
      {"measurement": "eGFR Mean (95% CI)", "setting": "DBP <80, Average UA ≥6, Month 30", "value": "59.37 (56.35-62.39) ml/min/1.73 m^2"},
      {"measurement": "eGFR Mean (95% CI)", "setting": "DBP <80, Average UA ≥6, Month 36", "value": "58.89 (55.43-62.34) ml/min/1.73 m^2"},
      {"measurement": "eGFR Mean (95% CI)", "setting": "DBP <80, Average UA ≥6, Month 42", "value": "57.48 (53.76-61.19) ml/min/1.73 m^2"},
      {"measurement": "eGFR Mean (95% CI)", "setting": "DBP <80, Average UA ≥6, Month 48", "value": "59.25 (55.00-63.51) ml/min/1.73 m^2"},
      {"measurement": "eGFR Mean (95% CI)", "setting": "DBP <80, Average UA ≥6, Month 54", "value": "58.18 (53.60-62.76) ml/min/1.73 m^2"}
    ]}
  ]
}
